Measured values reported in patent publication US10941132B2, “Pyrazole derivatives” (HUA MEDICINE (SHANGHAI) Ltd., priority 2016, dated 2021).

Each compound was assayed against T1, recombinant rat mGluR5 (Rattus norvegicus, UniProt P31424) (assay: Functional calcium flux assay (FLIPR), antagonist evaluation against glutamate-evoked [Ca2+]i increase). Conditions: Table 1; HEK293 cells stably expressing recombinant rat mGluR5; 15 min incubation of test compound, then submaximal glutamate; read-out: IC50 value (FLIPR assay).
T1 construct: expressed in transfected cells
Assay type: cell-based
Experimental: Functional Calcium Clux Assay Methodology
For functional assays, HEK293 cells stably expressing recombinant rat mGluR5 were seeded in 384-well plates and dye loaded using Fluo-8. Cells were then washed to remove the un-incorporated dye. Antagonist evaluation was performed following a 15 min incubation of the test compound followed by the addition of submaximal concentration of glutamate. Intracellular calcium ([Ca^2+]i) measurements were performed using a fluorometric imaging plate reader (FLIPR, Molecular Devices). The glutamate-evoked increase in [Ca^2′]i in the presence of the test compounds was compared to the response to glutamate alone (the positive control). Antagonist inhibition curves were fitted with a 4-parameter logistic equation giving IC50 values, and Hill coefficients using an iterative nonlinear curve fitting algorithm.
The tables below provide IC50 data in this assay. In the activity column, A=IC50>1,000 and ≤5,000 nM; B=IC50>500 and ≤1,000 nM and C=IC50≤500 nM.

T1 sequence (P31424 21-1203): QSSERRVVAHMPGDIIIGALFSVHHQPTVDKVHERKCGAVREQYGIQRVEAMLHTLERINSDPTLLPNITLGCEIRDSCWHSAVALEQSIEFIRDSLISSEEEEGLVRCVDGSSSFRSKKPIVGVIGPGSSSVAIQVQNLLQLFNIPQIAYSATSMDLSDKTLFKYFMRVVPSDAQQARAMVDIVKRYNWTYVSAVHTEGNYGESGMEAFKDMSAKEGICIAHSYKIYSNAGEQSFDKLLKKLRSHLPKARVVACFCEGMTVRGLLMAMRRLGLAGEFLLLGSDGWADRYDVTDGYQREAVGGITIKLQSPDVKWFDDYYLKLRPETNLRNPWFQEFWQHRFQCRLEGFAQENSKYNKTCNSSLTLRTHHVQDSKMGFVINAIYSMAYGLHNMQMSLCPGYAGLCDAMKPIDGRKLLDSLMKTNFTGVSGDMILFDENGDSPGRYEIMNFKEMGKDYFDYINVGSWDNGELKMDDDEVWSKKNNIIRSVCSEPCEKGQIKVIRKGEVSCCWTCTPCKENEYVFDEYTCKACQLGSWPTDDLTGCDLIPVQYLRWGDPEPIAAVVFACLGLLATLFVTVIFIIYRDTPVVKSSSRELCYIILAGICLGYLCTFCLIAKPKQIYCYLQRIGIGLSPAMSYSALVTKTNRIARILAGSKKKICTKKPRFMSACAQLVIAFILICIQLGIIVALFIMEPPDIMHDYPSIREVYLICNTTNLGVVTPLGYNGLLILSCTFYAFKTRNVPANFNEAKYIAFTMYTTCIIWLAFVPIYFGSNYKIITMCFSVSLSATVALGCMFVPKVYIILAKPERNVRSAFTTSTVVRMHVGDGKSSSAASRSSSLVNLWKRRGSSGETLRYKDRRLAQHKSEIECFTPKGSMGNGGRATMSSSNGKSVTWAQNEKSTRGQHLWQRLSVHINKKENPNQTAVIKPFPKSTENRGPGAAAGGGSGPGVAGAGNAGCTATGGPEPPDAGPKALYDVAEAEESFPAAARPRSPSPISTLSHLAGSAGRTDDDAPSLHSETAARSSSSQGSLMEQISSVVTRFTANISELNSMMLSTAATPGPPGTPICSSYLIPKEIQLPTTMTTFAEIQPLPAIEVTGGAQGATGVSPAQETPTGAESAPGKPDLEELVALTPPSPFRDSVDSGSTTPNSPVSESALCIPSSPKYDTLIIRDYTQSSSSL

SMILES | IC50
COCCOc1ccc(-n2cc(C#Cc3ccccn3)cn2)cc1 [Compound 26, 2-((1-(4-(2-methoxyethoxy)phenyl)-1H-pyrazol-4-yl)ethynyl) pyridine] | ≤ 500 nM
N#Cc1cc(F)cc(-n2cc(C#Cc3ccccn3)c(OC(F)F)n2)c1 [Compound 47, 3-(3-(difluoromethoxy)-4-(pyridin-2-ylethynyl)-1H-pyrazol-1-yl)-5-fluorobenzonitrile] | ≤ 500 nM
FC(F)(F)Oc1ccc(-n2cc(C#Cc3ccccc3)cn2)cc1 [Compound 89, 4-(phenylethynyl)-1-(4-(trifluoromethoxy)phenyl)-1H-pyrazole] | 1000 to 5000 nM
N#Cc1cc(F)cc(-n2cc(C#Cc3ncccn3)c(Cl)n2)c1 [Compound 39, 3-(3-chloro-4-(pyrimidin-2-ylethynyl)-1H-pyrazol-1-yl)-5-fluorobenzonitrile] | ≤ 500 nM
COCCOc1ccc(-n2cc(C#Cc3ccccn3)cn2)cn1 [Compound 28, 2-(2-methoxyethoxy)-5-(4-(pyridin-2-ylethynyl)-1H-pyrazol-1-yl) pyridine] | ≤ 500 nM

Results, then the compound that gave them:

IC50 | SMILES
≤ 500 nM | Cc1nn(-c2ccc(F)cc2)c(C)c1C#Cc1ccccn1 [Compound 1]
≤ 500 nM | Cc1nn(-c2ccc(F)cn2)cc1C#Cc1ccccn1 [Compound 63, 5-fluoro-2-(3-methyl-4-(pyridin-2-ylethynyl)-1H-pyrazol-1-yl)]
≤ 500 nM | N#Cc1cc(F)cc(-n2cc(C#Cc3ccccn3)c(C3CC3)n2)c1 [Compound 54, 3-(3-cyclopropyl-4-(pyridin-2-ylethynyl)-1H-pyrazol-1-yl)-5-fluorobenzonitrile]

Same assay, conditions: Table 2; HEK293 cells stably expressing recombinant rat mGluR5; 15 min incubation of test compound, then submaximal glutamate; read-out: IC50 (FLIPR assay)

SMILES | IC50
Cc1cc(C#Cc2ccncc2)nn1-c1ccc(F)cc1 [Compound 130, 4-((1-(4-fluorophenyl)-5-methyl-1H-pyrazol-3-yl)ethynyl) pyridine] | ≤ 500 nM
N#Cc1cc(F)cc(-n2ccc(C#Cc3ccccn3)n2)c1 [Compound 105, 3-fluoro-5-(3-(pyridin-2-ylethynyl)-1H-pyrazol-1-yl)benzonitrile] | ≤ 500 nM
N#Cc1cc(F)cc(-n2cc(Cl)c(C#Cc3ccccn3)n2)c1 [Compound 61, 3-(4-chloro-3-(pyridin-2-ylethynyl)-1H-pyrazol-1-yl)-5-fluorobenzonitrile] | ≤ 500 nM
N#Cc1cc(F)cc(-n2ccc(C#Cc3ccncc3)n2)c1 [Compound 110, 3-fluoro-5-(3-(pyridin-4-ylethynyl)-H-pyrazol-1-yl)benzonitrile] | ≤ 500 nM
Cc1cc(C#Cc2ncccn2)nn1-c1cc(F)cc(C#N)c1 [Compound 101, 3-fluoro-5-(5-methyl-3-(pyrimidin-2-ylethynyl)-H-pyrazol-1-yl) Benzonitrile] | ≤ 500 nM
FC(F)(F)Oc1ccc(-n2ccc(C#Cc3cccnc3)n2)cc1 [Compound 121, 3-((1-(4-(trifluoromethoxy)phenyl)-1H-pyrazol-3-yl)ethynyl) pyridine] | 1000 to 5000 nM
Cc1cc(C#Cc2cnccn2)nn1-c1ccc(F)cc1 [Compound 129, 2-((1-(4-fluorophenyl)-5-methyl-1H-pyrazol-3-yl)ethynyl)pyrazine] | 1000 to 5000 nM

The next lines start with the values.

IC50 | SMILES
≤ 500 nM | Fc1ccc(-n2ccc(C#Cc3ccccn3)n2)cc1 [Compound 112, 2-((1-(4-fluorophenyl)-1H-pyrazol-3-yl)ethynyl)pyridine]
≤ 500 nM | Fc1cncc(-n2ccc(C#Cc3ccccn3)n2)c1 [Compound 70, 3-fluoro-5-(3-(pyridin-2-ylethnyl)-1H-pyrazol-1-yl)pyridine]
≤ 500 nM | C(#Cc1ccn(-c2ccccn2)n1)c1ccccn1 [Compound 71, 2-((1-(pyridin-2-yl)-1H-pyrazol-3-yl)ethynyl)pyridine]
500 to 1000 nM | Fc1ccc(-n2ccc(C#Cc3cccc(Cl)c3)n2)cc1 [Compound 115, 3-((3-chlorophenyl)ethynyl)-1-(4-fluorophenyl)-1H-pyrazole]
1000 to 5000 nM | Cc1cc(C#Cc2cccnc2)nn1-c1ccc(OC(F)(F)F)cc1 [Compound 132, 3-((5-methyl-1-(4-(trifluoromethoxy)phenyl)-1H-pyrazol-3-yl)ethynyl)pyridine]
